Results as given in US20020137929A1, “1 - (3-heterocyclylphenyl) isothiourea, -isourea, -guanidine and -amidine herbicidal agents” (Intellectual Property Department, BASF Aktiengesellschaft, priority 1998, published 2002).

Legend:
CYPSE (Flatsedge) = assay: Postemergence weed control under flooded paddy conditions; format: in vivo, Cyperus serotinus; conditions: postemergence weeds
How it was run: (§1)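 With weeds 3 to 5 cm tall and rice at the 1.5 to 2.5 leaf stage, containers were flooded and water held 1.5 to 3 cm above soil. Compounds in 50/50 v/v aqueous/acetone went into the flood water at about 0.0313 to 0.500 kg/ha a.i. Effects were visually rated 0–9 against controls after three to four weeks in the greenhouse.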

[1] = test system: ECHORC (Watergrass (Calif.)); assay: as above; format: in vivo, Echinochloa oryzoides; conditions: postemergence weeds
How it was run: as §1

ORYSAT (Rice, Tebonnet) = assay: Postemergence herbicidal evaluation; format: in vivo, Oryza sativa, (L.) Tebonnet; conditions: for Herbicidal rating ORYSAT: postemergence
How it was run: (§2)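 Two-week-old seedlings sprayed with compound in 50/50 acetone/water plus 0.5% TWEEN 20, at about 0.0156 to 0.500 kg/ha, nozzle at 40 psi. Kept in greenhouse; rated visually 4-5 weeks after treatment on a 0-9 scale versus control, repeat tests averaged.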

SETVI (Foxtail, Green) = assay: Postemergence herbicidal evaluation; format: in vivo, Setaria viridis; conditions: for Herbicidal rating SETVI: postemergence
How it was run: as §2

ABUTH (Velvetleaf) = assay: Postemergence herbicidal evaluation; format: in vivo, Abutilon theophrasti; conditions: for Herbicidal rating ABUTH: postemergence
How it was run: as §2

[2] = test system: CHEAL (Lambsquarters, Common); assay: Postemergence herbicidal evaluation; format: in vivo, Chenopodium album; conditions: for Herbicidal rating CHEAL: postemergence
How it was run: as §2

[3] = test system: GLXMAW (Soybean, Williams); assay: Postemergence herbicidal evaluation; format: in vivo, Glycine max, (L.) Merr. cv Williams; conditions: for Herbicidal rating GLXMAW: postemergence
How it was run: as §2

[4] = test system: SAGPY (Arrowhead (Pygmaea)); assay: Postemergence weed control under flooded paddy conditions; format: in vivo, Sagittaria pygmaea; conditions: postemergence weeds
How it was run: as §1

[5] = test system: TRZAWR (Wheat, Winter, cv Riband); assay: Postemergence herbicidal evaluation; format: in vivo, Triticum aestivum; conditions: for Herbicidal rating TRZAWR: postemergence
How it was run: as §2

CYPIR (Rice Flatsedge) = assay: Preemergence weed control under flooded paddy conditions; format: in vivo, Cyperus iria; conditions: rated 3-4 weeks after treatment
How it was run: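 Silt loam, seeds in top 0.5 cm; flood held 1.5-3 cm; test cpd as acetone/water 50/50 into flood water, ~0.0313-0.500 kg/ha a.i.; greenhouse 3-4 wk; visual 0-9 score vs control.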

ZEAMX (Corn, Field) = assay: Postemergence herbicidal evaluation; format: in vivo, Zea mays; conditions: for Herbicidal rating ZEAMX: postemergence
How it was run: as §2

[6] = Rate 0.0313 kg/ha, rated 3 to 4 weeks after treatment
[7] = Rate 0.0625 kg/ha, rated 3 to 4 weeks after treatment
[8] = Rate 0.1250 kg/ha, rated 3 to 4 weeks after treatment
[9] = Rate 0.2500 kg/ha, rated 3 to 4 weeks after treatment
[10] = Rate 0.5000 kg/ha, rated 3 to 4 weeks after treatment
[11] = rate 0.0313 kg/ha, 3-4 weeks after treatment
[12] = rate 0.0625 kg/ha, 3-4 weeks after treatment
[13] = rate 0.1250 kg/ha, 3-4 weeks after treatment
[14] = rate 0.2500 kg/ha, 3-4 weeks after treatment

Structure (SMILES): C=CCN1C(=O)C(CC(=O)NS(=O)(=O)c2ccccc2)SC1=Nc1cc(-n2c(=O)cc(C(F)(F)F)n(C)c2=O)c(F)cc1Cl (stereo not drawn) [Compound 101, 3-Allyl-2-{{2-chloro-5-[3,6-dihydro-3-methyl-2,6-dioxo-4-(trifluoromethyl)-1(2H)-pyrimidinyl]-4-fluorophenyl}imino}-4-oxo-N-(phenylsulfonyl)-5-thiazolidineacetamide]
- Herbicidal rating CYPSE (CYPSE (Flatsedge); [6]): 0.0
- Herbicidal rating CYPSE (CYPSE (Flatsedge); [7]): 0.0
- Herbicidal rating CYPSE (CYPSE (Flatsedge); [8]): 0.0
- Herbicidal rating CYPSE (CYPSE (Flatsedge); [9]): 0.0
- Herbicidal rating CYPSE (CYPSE (Flatsedge); [10]): 0.0
- Herbicidal rating ECHORC [1, 6]: 0.0
- Herbicidal rating ECHORC [1, 7]: 0.0
- Herbicidal rating ECHORC [1, 8]: 0.0
- Herbicidal rating ECHORC [1, 9]: 0.0
- Herbicidal rating ECHORC [1, 10]: 0.0
- Herbicidal rating ORYSAT (ORYSAT (Rice, Tebonnet); rate 0.0156 kg/ha): 2.5
- Herbicidal rating ORYSAT (ORYSAT (Rice, Tebonnet); rate 0.0313 kg/ha): 3.0
- Herbicidal rating ORYSAT (ORYSAT (Rice, Tebonnet); rate 0.0625 kg/ha): 4.0
- Herbicidal rating ORYSAT (ORYSAT (Rice, Tebonnet); rate 0.1250 kg/ha): 4.0
- Herbicidal rating SETVI (SETVI (Foxtail, Green); rate 0.0156 kg/ha): 2.0
- Herbicidal rating SETVI (SETVI (Foxtail, Green); rate 0.0313 kg/ha): 1.0
- Herbicidal rating SETVI (SETVI (Foxtail, Green); rate 0.0625 kg/ha): 5.0
- Herbicidal rating SETVI (SETVI (Foxtail, Green); rate 0.1250 kg/ha): 5.0
- Herbicidal rating ABUTH (ABUTH (Velvetleaf); rate 0.0156 kg/ha): 3.0
- Herbicidal rating ABUTH (ABUTH (Velvetleaf); rate 0.0313 kg/ha): 7.0
- Herbicidal rating ABUTH (ABUTH (Velvetleaf); rate 0.0625 kg/ha): 9.0
- Herbicidal rating ABUTH (ABUTH (Velvetleaf); rate 0.1250 kg/ha): 9.0
- Herbicidal rating CHEAL ([2]; rate 0.0156 kg/ha): 4.0
- Herbicidal rating CHEAL ([2]; rate 0.0313 kg/ha): 4.0
- Herbicidal rating CHEAL ([2]; rate 0.0625 kg/ha): 4.0
- Herbicidal rating CHEAL ([2]; rate 0.1250 kg/ha): 7.0
- Herbicidal rating GLXMAW ([3]; rate 0.0156 kg/ha): 5.5
- Herbicidal rating GLXMAW ([3]; rate 0.0313 kg/ha): 5.5
- Herbicidal rating GLXMAW ([3]; rate 0.0625 kg/ha): 6.0
- Herbicidal rating GLXMAW ([3]; rate 0.1250 kg/ha): 6.5
- Herbicidal rating SAGPY [4, 6]: 0.0
- Herbicidal rating SAGPY [4, 7]: 0.0
- Herbicidal rating SAGPY [4, 8]: 0.0
- Herbicidal rating SAGPY [4, 9]: 2.0
- Herbicidal rating SAGPY [4, 10]: 4.0
- Herbicidal rating TRZAWR ([5]; rate 0.0156 kg/ha): 3.0
- Herbicidal rating TRZAWR ([5]; rate 0.0313 kg/ha): 3.5
- Herbicidal rating TRZAWR ([5]; rate 0.0625 kg/ha): 4.0
- Herbicidal rating TRZAWR ([5]; rate 0.1250 kg/ha): 5.0
- CYPIR herbicidal effect rating (CYPIR (Rice Flatsedge); 0.0313 kg/ha): 0.0
- CYPIR herbicidal effect rating (CYPIR (Rice Flatsedge); 0.0625 kg/ha): 0.0
- CYPIR herbicidal effect rating (CYPIR (Rice Flatsedge); 0.1250 kg/ha): 0.0
- CYPIR herbicidal effect rating (CYPIR (Rice Flatsedge); 0.2500 kg/ha): 3.0
- CYPIR herbicidal effect rating (CYPIR (Rice Flatsedge); 0.5000 kg/ha): 4.0
- Herbicidal rating ZEAMX (ZEAMX (Corn, Field); rate 0.0156 kg/ha): 4.5
- Herbicidal rating ZEAMX (ZEAMX (Corn, Field); rate 0.0313 kg/ha): 4.5
- Herbicidal rating ZEAMX (ZEAMX (Corn, Field); rate 0.0625 kg/ha): 5.0
- Herbicidal rating ZEAMX (ZEAMX (Corn, Field); rate 0.1250 kg/ha): 5.0

Structure (SMILES): CCOC(=O)CN1C(=O)C(CC(=O)OC(C)C)SC1=Nc1cc(-n2c(=O)cc(C(F)(F)F)n(C)c2=O)c(F)cc1Cl (stereo not drawn) [Compound 55, 2-{{2-Chloro-5-[3,6-dihydro-3-methyl-2,6-dioxo-4-(trifluoromethyl)-1(2H)-pyrimidinyl]-4-fluoro-phenyl}imino}-4-oxo-3,5-thiazolidinediacetic acid, 3-ethyl isopropyl ester]
- Herbicidal rating CYPSE (CYPSE (Flatsedge); [11]): 0.0
- Herbicidal rating CYPSE (CYPSE (Flatsedge); [12]): 0.0
- Herbicidal rating CYPSE (CYPSE (Flatsedge); [13]): 0.0
- Herbicidal rating CYPSE (CYPSE (Flatsedge); [14]): 0.0
- Herbicidal rating ECHORC [1, 11]: 7.0
- Herbicidal rating ECHORC [1, 12]: 7.0
- Herbicidal rating ECHORC [1, 13]: 7.0
- Herbicidal rating ECHORC [1, 14]: 7.0
- Postemergence herbicidal rating ORYSAT (ORYSAT (Rice, Tebonnet); Rate 0.0158 kg/ha): 2.5
- Postemergence herbicidal rating ORYSAT (ORYSAT (Rice, Tebonnet); Rate 0.0313 kg/ha): 3.5
- Postemergence herbicidal rating ORYSAT (ORYSAT (Rice, Tebonnet); Rate 0.0625 kg/ha): 4.2
- Postemergence herbicidal rating ORYSAT (ORYSAT (Rice, Tebonnet); Rate 0.1250 kg/ha): 5.5
- Postemergence herbicidal rating ORYSAT (ORYSAT (Rice, Tebonnet); Rate 0.2500 kg/ha): 6.5
- Postemergence herbicidal rating SETVI (SETVI (Foxtail, Green); Rate 0.0158 kg/ha): 9.0
- Postemergence herbicidal rating SETVI (SETVI (Foxtail, Green); Rate 0.0313 kg/ha): 9.0
- Postemergence herbicidal rating SETVI (SETVI (Foxtail, Green); Rate 0.0625 kg/ha): 9.0
- Postemergence herbicidal rating SETVI (SETVI (Foxtail, Green); Rate 0.1250 kg/ha): 9.0
- Postemergence herbicidal rating SETVI (SETVI (Foxtail, Green); Rate 0.2500 kg/ha): 9.0
- Postemergence herbicidal rating ABUTH (ABUTH (Velvetleaf); Rate 0.0158 kg/ha): 8.0
- Postemergence herbicidal rating ABUTH (ABUTH (Velvetleaf); Rate 0.0313 kg/ha): 9.0
- Postemergence herbicidal rating ABUTH (ABUTH (Velvetleaf); Rate 0.0625 kg/ha): 9.0
- Postemergence herbicidal rating ABUTH (ABUTH (Velvetleaf); Rate 0.1250 kg/ha): 9.0
- Postemergence herbicidal rating ABUTH (ABUTH (Velvetleaf); Rate 0.2500 kg/ha): 9.0
- Postemergence herbicidal rating CHEAL ([2]; Rate 0.0158 kg/ha): 9.0
- Postemergence herbicidal rating CHEAL ([2]; Rate 0.0313 kg/ha): 9.0
- Postemergence herbicidal rating CHEAL ([2]; Rate 0.0625 kg/ha): 9.0
- Postemergence herbicidal rating CHEAL ([2]; Rate 0.1250 kg/ha): 9.0
- Postemergence herbicidal rating CHEAL ([2]; Rate 0.2500 kg/ha): 9.0
- Postemergence herbicidal rating GLXMAW ([3]; Rate 0.0158 kg/ha): 8.0
- Postemergence herbicidal rating GLXMAW ([3]; Rate 0.0313 kg/ha): 8.2
- Postemergence herbicidal rating GLXMAW ([3]; Rate 0.0625 kg/ha): 8.0
- Postemergence herbicidal rating GLXMAW ([3]; Rate 0.1250 kg/ha): 8.3
- Postemergence herbicidal rating GLXMAW ([3]; Rate 0.2500 kg/ha): 8.0
- Herbicidal rating SAGPY [4, 11]: 0.0
- Herbicidal rating SAGPY [4, 12]: 0.0
- Herbicidal rating SAGPY [4, 13]: 0.0
- Herbicidal rating SAGPY [4, 14]: 0.0
- Postemergence herbicidal rating TRZAWR ([5]; Rate 0.0158 kg/ha): 5.5
- Postemergence herbicidal rating TRZAWR ([5]; Rate 0.0313 kg/ha): 6.8
- Postemergence herbicidal rating TRZAWR ([5]; Rate 0.0625 kg/ha): 7.5
- Postemergence herbicidal rating TRZAWR ([5]; Rate 0.1250 kg/ha): 7.5
- Postemergence herbicidal rating TRZAWR ([5]; Rate 0.2500 kg/ha): 7.5
- Herbicidal rating CYPIR (CYPIR (Rice Flatsedge); 0.0313 kg/ha): 9.0
- Herbicidal rating CYPIR (CYPIR (Rice Flatsedge); 0.0625 kg/ha): 9.0
- Herbicidal rating CYPIR (CYPIR (Rice Flatsedge); 0.1250 kg/ha): 9.0
- Herbicidal rating CYPIR (CYPIR (Rice Flatsedge); 0.2500 kg/ha): 9.0
- Postemergence herbicidal rating ZEAMX (ZEAMX (Corn, Field); Rate 0.0158 kg/ha): 7.5
- Postemergence herbicidal rating ZEAMX (ZEAMX (Corn, Field); Rate 0.0313 kg/ha): 8.3
- Postemergence herbicidal rating ZEAMX (ZEAMX (Corn, Field); Rate 0.0625 kg/ha): 8.7
- Postemergence herbicidal rating ZEAMX (ZEAMX (Corn, Field); Rate 0.1250 kg/ha): 8.8
- Postemergence herbicidal rating ZEAMX (ZEAMX (Corn, Field); Rate 0.2500 kg/ha): 9.0
